{
  "source": "patent US9169241B2",
  "about": "“Quinolinyloxyphenylsulfonamides” (Max-Planck-Gesellschaft Zur Forderung der Wissenschaften …, priority 2009, dated 2015)",
  "assay_type_in_all_cases": "cell-based",
  "key": {"U138": {"tested_on": "U138", "test": "Matrigel outgrowth assay/branching assay", "settings": "IC100, U138; Table Vb", "procedure,_shortened": "(§1)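 Read-out: microscopic images of invasive branching structures at 48 h, 72 h and 96 h. Cells sat on a 3 mg/ml Matrigel layer (set 1 h, 37° C) with compound at 3.125, 1.56 and 0.78 μM or DMSO. A concentration counts as positive only with complete branching inhibition.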"}, "U87MG": {"tested_on": "U87MG", "test": "Matrigel outgrowth assay/branching assay", "settings": "IC100, U87MG; Table Vb", "procedure,_shortened": "as §1"}, "PC3": {"tested_on": "PC3", "test": "Matrigel outgrowth assay/branching assay", "settings": "IC100, PC3; Table Vb", "procedure,_shortened": "as §1"}, "NCI-H1299": {"tested_on": "NCI-H1299", "test": "Matrigel outgrowth assay/branching assay", "settings": "IC100, NCI-H1299; Table Vb", "procedure,_shortened": "as §1"}, "U373": {"tested_on": "U373", "test": "Matrigel outgrowth assay/branching assay", "settings": "IC100, U373; Table Vb", "procedure,_shortened": "as §1"}, "MCF10A": {"tested_on": "MCF10A", "test": "Cell vitality assay (ATP assay, CellTiter-Glo)", "settings": "Homo sapiens, MCF-10A, Table IIb", "procedure,_shortened": "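Steps: seed 1000 cells per well; add compound (0.195–12.5 μM, 7 points) or DMSO; incubate 72 h; equilibrate to room temperature ~30 min; add reagent, shake 2 min, stand 10 min; read luminescence. IC50 relative to DMSO-control ATP.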"}},
  "data": [
    {"smiles": "COC(=O)c1sccc1S(=O)(=O)Nc1ccc(Oc2ccnc3cc(OCCCN4CCCC(C)C4)c(OC)cc23)c(F)c1", "note": "(stereo not shown) [Example 66, 3-(3-Fluoro-4-{6-methoxy-7-[3-(3-methyl-piperidin-1-yl)-propoxy]-quinolin-4-yloxy}-phenylsulfamoyl)-thiophene-2-carboxylic acid methyl ester]", "values": [
      {"measurement": "Total branching inhibition in Matrigel U138", "setting": "U138", "value": "++ (IC100≦12.5 μM)"},
      {"measurement": "Total branching inhibition in Matrigel U87MG", "setting": "U87MG", "value": "++ (IC100≦12.5 μM)"},
      {"measurement": "Total branching inhibition in Matrigel PC3", "setting": "PC3", "value": "++ (IC100≦12.5 μM)"},
      {"measurement": "Total branching inhibition in Matrigel NCI-H1299", "setting": "NCI-H1299", "value": "++ (IC100≦12.5 μM)"},
      {"measurement": "Total branching inhibition in Matrigel U373", "setting": "U373", "value": "++ (IC100≦12.5 μM)"}
    ]},
    {"smiles": "COc1cc2c(Oc3ccc(NS(=O)(=O)c4ccccc4C(F)(F)F)cc3F)ccnc2cc1OCCCN1CCN(C)CC1", "note": "[Example 24, N-(3-Fluoro-4-{6-methoxy-7-[3-(4-methyl-piperazin-1-yl)-propoxy]-quinolin-4-yloxy}-phenyl)-2-trifluoromethyl-benzenesulfonamide]", "values": [
      {"measurement": "IC50", "setting": "MCF10A", "value": "≤ 12.5", "unit": "µM"},
      {"measurement": "Total branching inhibition in Matrigel U138", "setting": "U138", "value": "++ (IC100≦12.5 μM)"},
      {"measurement": "Total branching inhibition in Matrigel U87MG", "setting": "U87MG", "value": "+ (IC100>12.5 μM)"},
      {"measurement": "Total branching inhibition in Matrigel PC3", "setting": "PC3", "value": "++ (IC100≦12.5 μM)"},
      {"measurement": "Total branching inhibition in Matrigel NCI-H1299", "setting": "NCI-H1299", "value": "++ (IC100≦12.5 μM)"},
      {"measurement": "Total branching inhibition in Matrigel U373", "setting": "U373", "value": "++ (IC100≦12.5 μM)"}
    ]},
    {"smiles": "COc1cc2c(Oc3ccc(NS(=O)(=O)c4cc(F)ccc4F)cc3F)ccnc2cc1OCCCN1CCCCC1", "note": "[Example 1, 2,5-Difluoro-N-{3-fluoro-4-[6-methoxy-7-(3-piperidin-1-yl-propoxy)-quinolin-4-yloxy]-phenyl}-benzenesulfonamide]", "values": [
      {"measurement": "Total branching inhibition in Matrigel U138", "setting": "U138", "value": "++ (IC100≦12.5 μM)"},
      {"measurement": "Total branching inhibition in Matrigel U87MG", "setting": "U87MG", "value": "+ (IC100>12.5 μM)"},
      {"measurement": "Total branching inhibition in Matrigel PC3", "setting": "PC3", "value": "++ (IC100≦12.5 μM)"},
      {"measurement": "Total branching inhibition in Matrigel NCI-H1299", "setting": "NCI-H1299", "value": "++ (IC100≦12.5 μM)"},
      {"measurement": "Total branching inhibition in Matrigel U373", "setting": "U373", "value": "++ (IC100≦12.5 μM)"}
    ]},
    {"smiles": "COc1cc2c(Oc3ccc(NS(=O)(=O)c4cc(F)ccc4F)cc3F)ccnc2cc1OCCCN1CCN(C)CC1", "note": "[Example 12, 2,5-Difluoro-N-(3-fluoro-4-{6-methoxy-7-[3-(4-methyl-piperazin-1-yl)-propoxy]-quinolin-4-yloxy}-phenyl)-benzenesulfonamide]", "values": [
      {"measurement": "Total branching inhibition in Matrigel U138", "setting": "U138", "value": "++ (IC100≦12.5 μM)"},
      {"measurement": "Total branching inhibition in Matrigel U87MG", "setting": "U87MG", "value": "+ (IC100>12.5 μM)"},
      {"measurement": "Total branching inhibition in Matrigel PC3", "setting": "PC3", "value": "++ (IC100≦12.5 μM)"},
      {"measurement": "Total branching inhibition in Matrigel NCI-H1299", "setting": "NCI-H1299", "value": "++ (IC100≦12.5 μM)"},
      {"measurement": "Total branching inhibition in Matrigel U373", "setting": "U373", "value": "++ (IC100≦12.5 μM)"}
    ]},
    {"smiles": "COc1cc2c(Oc3ccc(NS(=O)(=O)c4cccc(Oc5ccccc5)c4)cc3F)ccnc2cc1OCCCN1CCN(C)CC1", "note": "[Example 14, N-(3-Fluoro-4-{6-methoxy-7-[3-(4-methyl-piperazin-1-yl)-propoxy]-quinolin-4-yloxy}-phenyl)-3-phenoxy-benzenesulfonamide]", "values": [
      {"measurement": "Total branching inhibition in Matrigel U138", "setting": "U138", "value": "++ (IC100≦12.5 μM)"}
    ]}
  ]
}
